Series [1] concerns MOLM-13 cells. Nature of the series: Tumor-bearing mice transplanted with MOLM-13 cells, with venetoclax and azacitidine, T/C (Example 10). The class given is in vivo. As to conditions: MOLM-13 tumor-bearing mice, oral, 15 days. The protocol:
(§1) The present compound was weighed and dissolved in 0.5 w/v % Methyl Cellulose 400 solution to give the compound concentrations of 20 mg/mL and 10 mg/mL. Venetoclax was weighed and suspended in a mixed solution of Phosal 50 propylene glycol (60%)/Polyethylene glycol-400 (30%)/Ethanol (10%) to give the compound concentration of 5 mg/mL. Azacitidine was weighed and dissolved in saline to give the compound concentration of 0.3 mg/mL.
MOLM-13 cells (DSMZ) were intradermally implanted around the ventral region of 5-week old NOD. CB17-PrkdcSCID/J mice (female, The Jackson Laboratory Japan) at 1×10^6 cells/mouse. […] The tumor volume was measured over time from the start of the administration, and the reduction effect of the tumor volume due to the compound-administration was evaluated. The tumor volume was calculated by the following formula using short axis and long axis of the tumor measured with an electronic caliper (Mitutoyo).
(§2) The control administration group in which only the solvent was administered and the test substance administration group were compared, and T/C was calculated using the following formula to evaluate the antitumor effect.

In series [2] the test system is MOLM-13 cells. Nature of the series: Tumor-bearing mice transplanted with MOLM-13 cells, with cytarabine and daunorubicin, T/C (Example 11). In kind it is in vivo. Particulars: MOLM-13 tumor-bearing mice, oral, 17 days. On the procedure: Cytarabine (Cylocide Injection 200 mg/10 mL, Nippon Shinyaku Co., Ltd.) was diluted with saline (Otsuka Saline Injection, Otsuka Pharmaceutical Factory Co., Ltd.) to 8 mg/mL. Daunorubicin (Daunomycin for injection 20 mg, Meiji, Seika Pharma Co., Ltd.) was dissolved in saline (Otsuka Saline Injection, Otsuka Pharmaceutical Factory Co., Ltd.) to 0.2 mg/mL.
MOLM-13 cells (DSMZ) were intradermally implanted around the ventral region of 8-week old NOD. CB17-PrkdcSCID/J mice (female, The Jackson Laboratory Japan) at 1×10^6 cells/mouse. […] Cytarabine was intraperitoneally administered to the mice at a dose of 80 mg/kg once a day for 5 days. Daunorubicin was intravenously administered to the mice at a dose of 1 mg/kg once a day for 3 days. The tumor volume was measured over time from the start of the administration, and the reduction effect of the tumor volume due to the compound-administration was evaluated. The tumor volume was calculated by the following formula using short axis and long axis of the tumor measured with an electronic caliper (Mitutoyo).
as §2

Series [3] in a line: Phase 1/2 clinical study, plasma pharmacokinetic evaluation. The class given is in vivo. Particulars: human, oral, 140 mg, Cycle 1 Day 1, 140 mg BID Arm B (with azole), N=2, mean.
The test system of series [4] is HOXA9, MEIS1, PBX3, CD11b gene expression. Nature of the series: Phase 1/2 clinical study, pharmacodynamic gene expression biomarkers in bone marrow aspirate. The class given is in vivo, human. The text has this:
All dose levels and time points are combined.
(2) FIGS. 6A and 6B show average of the maximum percentage change of gene expression of leukemic (HOXA9, MEIS1, PBX3) and differentiation (CD11b) biomarkers in bone marrow aspirate of patients from all dose levels, for whom a baseline and post-baseline sample were collected.

The conditions of series [5]: human, in vivo.
Experimental: Arm A: Patients without azole antifungal treatment within 7 days (or 21 days for isavuconazole) of first dose of the present compound
Arm B: Patients receiving posaconazole, voriconazole, or fluconazole antifungal prophylaxis at enrollment
The safety of each dose level also was evaluated by the SRC, which was comprised of all investigators participating in the study and selected Sponsor study team members. The dose recommended by the BLRM method was treated as guidance and was integrated with a clinical assessment of toxicity information and review of other available data, including safety, PK, pharmacodynamic, and laboratory data.
When the Dose Limiting Toxicity (DLT) evaluation for each cohort was completed, the SRC determined a next dose level based on the DLT and other available data, including safety, PK, pharmacodynamic, and laboratory data with reference to the Bayesian Logistic Regression Model (BLRM) recommendation.
Dose escalation decisions were made after all patients in a dose level cohort have at least completed Cycle 1. All available data were presented along with the BLRM predictions for toxicity probabilities at the potential next dose levels. The SRC then determined the dose(s) for the next cohort(s).
The next series has as its system OCI-AML3 cells. In words: Tumor-bearing mice transplanted with OCI-AML3 cells, with venetoclax and azacitidine, T/C (Example 13). The class given is in vivo. As to conditions: oral, 21 days. On the procedure: as §1
OCI-AML3 cells (DSMZ) were intradermally implanted around the ventral region of 6-week old NOD. CB17-PrkdcSCID/J mice (female, The Jackson Laboratory Japan) at 1×10^6 cells/mouse. […] The tumor volume was measured over time from the start of the administration, and the reduction effect of the tumor volume due to the compound-administration was evaluated. The tumor volume was calculated by the following formula using short axis and long axis of the tumor measured with an electronic caliper (Mitutoyo).
as §2

[6] abbreviates: patients with MLLr or NPM1m AML, all dose levels and time points (FIG. 5).
The mark [7] stands for this setting: patients with target mutations, all dose levels (FIGS. 6A, 6B).
The mark [8] stands for this setting: patients, notable with MLLr or NPM1m (Example 3).

Consider `C=C1C[C@@H]2CC[C@H]1[C@@H](C(=O)N1CCC3(CC1)CN(c1ncncc1Oc1ccc(F)cc1C(=O)N(C(C)C)C(C)C)C3)N2` [the present compound, 5-fluoro-2-[(4-{7-[(1S,3S,4R)-5-methylidene-2-azabicyclo[2.2.2]octane-3-carbonyl]-2,7-diazaspiro[3.5]nonan-2-yl}pyrimidin-5-yl)oxy]-N,N-di(propan-2-yl)benzamide], for which the T/C in the series with MOLM-13 cells [1] (100 mg/kg) is 22.6%; in the series with MOLM-13 cells [1] (200 mg/kg) it was 8.4%; with MOLM-13 cells [2] (100 mg/kg), 29.8%; in the series with MOLM-13 cells [2] (200 mg/kg) it was 0.3%; with OCI-AML3 cells (100 mg/kg) it was 47.1%; in the series on OCI-AML3 cells (200 mg/kg) it was 34.3%. The same molecule registered a Cmax in series [3] of 3100 ng/mL. Besides, the “gene expression of CD11b in bone marrow aspirate” value in series [4] (setting [6]) and in series [4] (setting [7]) was “increases” throughout. The “gene expression of HOXA9, PBX3 and MEIS1 in bone marrow aspirate” value in series [4] (setting [6]) and in series [4] (setting [7]) was “Clear decreases” throughout. Moreover, the “change in CD11b” value in series [4] (setting [8]) was “increases”. In addition, the “change in HOXA9, PBX3 and MEIS1” value in series [4] (setting [8]) was “decreases”. The “SAE COVID-19, CTCAE Grade” value in series [5] came to 3.

These data come from patent publication US20260248787A9, “MEDICAMENT FOR TREATING CANCER COMPRISING OPTICALLY ACTIVE AZABICYCLO RING DERIVATIVE” (Sumitomo Pharma Co., Ltd., priority 2023, published 2026).
